Measurements as given in US12052991B2, “Substituted pyridinyloxybenzenes and salts thereof and use thereof as herbicidal agents” (Bayer Aktiengesellschaft, priority 2018, dated 2024).

Assays:
Format in all cases: in vivo
[1] = system: soybean (GLXMA, var. Sultana); experiment: Pre-emergence crop plant compatibility (Table E1); settings: dosage 80 g/ha, scored after about 3 weeks, 0% = like control plants
Source text: (§1) Seeds of monocotyledonous and dicotyledonous crop plants were placed in plastic or organic plant pots and covered with soil. The compounds of the invention, formulated in the form of wettable powders (WP) or as emulsion concentrates (EC), were then applied to the surface of the covering soil as aqueous suspension or emulsion with addition of 0.5% additive at a water application rate equivalent to 600 l/ha (converted). After the treatment, the pots were placed in a greenhouse and kept under good growth conditions for the test plants. After about 3 weeks, the effect of the preparations was scored visually in comparison with untreated controls as percentages. For example, 100% activity=the plants have died, 0% activity=like control plants.

[2] = system: wheat (TRZAS, var. Triso); experiment: Pre-emergence crop plant compatibility (Table E1); settings: dosage 80 g/ha, scored after about 3 weeks, 0% = like control plants
Source text: as §1

[3] = system: corn (ZEAMX, var. Aventura); experiment: Pre-emergence crop plant compatibility (Table E1); settings: dosage 80 g/ha, scored after about 3 weeks, 0% = like control plants
Source text: as §1

[4] = system: harmful plants AGSTE, DIPTE, LOLPE, MATCH, POAAN, SETVI, STEME and VERPE; experiment: Herbicidal early post-emergence action, summary of Tables A1-A8; settings: application rate of 1900 g of active ingredient per hectare; summary in words
Outline: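 Weeds in quartz sand in microtiter plates were treated at cotyledon stage, 5–7 days after sowing, with EC-formulated compounds at 1900 g/ha in 2200 L/ha water. Activity scored visually against untreated controls after 9–12 days in a climate chamber (100% = dead, 0% = like control).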

[5] = system: Poa annua (POAAN); experiment: Herbicidal early post-emergence action (Table A3); settings: 1900 g/ha; scored visually 9 to 12 days after treatment; 100% = plants have died, 0% = like control plants
Description: (§2) Seeds of monocotyledonous and dicotyledonous weed plants were placed in 96-well microtiter plates in quartz sand and grown in a climatized chamber under controlled growth conditions. 5 to 7 days after sowing, the test plants were treated at the cotyledon stage. The compounds according to the invention, formulated in the form of emulsion concentrates (EC), were applied with a water application rate of the equivalent of 2200 liters per hectare. After the test plants had been left to stand in the climatized chamber for 9 to 12 days under optimum growth conditions, the effect of the preparations was scored visually in comparison to untreated controls. For example, 100% activity=the plants have died, 0% activity=like control plants. Tables A1 to A8 below show the effects of selected compounds of the general formula (I) according to Table 1 on various harmful plants and an application rate corresponding to 1900 g/ha, which were obtained by the experimental procedure mentioned above.

[6] = system: Agrostis tenuis (AGSTE); experiment: Herbicidal early post-emergence action (Table A1); settings: 1900 g/ha; scored visually 9 to 12 days after treatment; 100% = plants have died, 0% = like control plants
Outline: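 Weeds sown in quartz sand in microtiter plates and treated at cotyledon stage, 5-7 days after sowing, with EC-formulated compound at 1900 g/ha in 2200 L/ha water. Damage scored visually 9-12 days later against untreated controls (0% = as control, 100% = dead).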

[7] = system: Setaria viridis (SETVI); experiment: Herbicidal early post-emergence action (Table A4); settings: 1900 g/ha; scored visually 9 to 12 days after treatment; 100% = plants have died, 0% = like control plants
Description: as §2

[8] = system: Stellaria media (STEME); experiment: Herbicidal early post-emergence action (Table A7); settings: 1900 g/ha; scored visually 9 to 12 days after treatment; 100% = plants have died, 0% = like control plants
Description: as §2

[9] = system: Diplotaxis tenuifolia (DIPTE); experiment: Herbicidal early post-emergence action (Table A5); settings: 1900 g/ha; scored visually 9 to 12 days after treatment; 100% = plants have died, 0% = like control plants
Description: as §2

[10] = system: Lolium perenne (LOLPE); experiment: Herbicidal early post-emergence action (Table A2); settings: 1900 g/ha; scored visually 9 to 12 days after treatment; 100% = plants have died, 0% = like control plants
Description: as §2

[11] = system: Matricaria chamonilla (MATCH); experiment: Herbicidal early post-emergence action (Table A6); settings: 1900 g/ha; scored visually 9 to 12 days after treatment; 100% = plants have died, 0% = like control plants
Description: as §2

[12] = system: Veronica persica (VERPE); experiment: Herbicidal early post-emergence action (Table A8); settings: 1900 g/ha; scored visually 9 to 12 days after treatment; 100% = plants have died, 0% = like control plants
Description: as §2

Compound | herbicidal activity against the harmful plants of Tables A1-A8 in early post-emergence treatment [4] | Early post-emergence effect against Poa annua (POAAN) [5] [%] | Early post-emergence effect against Agrostis tenuis (AGSTE) [6] [%] | Early post-emergence effect against Diplotaxis tenuifolia (DIPTE) [9] [%] | also measured
FC(F)c1cc(-c2ccccc2Oc2ncc(Cl)cn2)on1 [US 2016/ 333000 No. 53] | – | – | – | – | Crop plant compatibility in pre-emergence, GLXMA (damage to soybean) [1]: 80%; Crop plant compatibility in pre-emergence, TRZAS (damage to wheat) [2]: 20%; Crop plant compatibility in pre-emergence, ZEAMX (damage to corn) [3]: 50%
Cc1cc(F)c(-c2cc(C(F)F)no2)c(Oc2ccc(Cl)cn2)c1 [Example 1-88] | very good herbicidal activity | 100 | 100 | – | Early post-emergence effect against Setaria viridis (SETVI) [7]: 80%
FC(F)(F)c1cccc(-c2ccccc2Oc2ccc(Cl)cn2)n1 [Example 1-49] | very good herbicidal activity | – | – | – | Early post-emergence effect against Stellaria media (STEME) [8]: 80%; Early post-emergence effect against Setaria viridis (SETVI) [7]: 100%
Fc1cccc(Oc2ncc(Cl)cn2)c1-c1cc(C(F)F)no1 [US 2016/ 333000 No. 144] | – | – | – | – | Crop plant compatibility in pre-emergence, GLXMA (damage to soybean) [1]: 100%; Crop plant compatibility in pre-emergence, TRZAS (damage to wheat) [2]: 70%; Crop plant compatibility in pre-emergence, ZEAMX (damage to corn) [3]: 30%
Fc1cccc(Oc2ncc(C(F)(F)F)cc2Cl)c1-c1cc(C(F)(F)F)on1 [Example 1-5] | very good herbicidal activity | – | – | 80 | –
Cc1cc(C)c(-c2cc(C(F)F)no2)c(Oc2ccc(Cl)cn2)c1 [Example 1-78] | very good herbicidal activity | 100 | 100 | – | Early post-emergence effect against Lolium perenne (LOLPE) [10]: 80%
Fc1cccnc1Oc1cccc(F)c1-c1cc(C(F)F)on1 [Example 1-14] | very good herbicidal activity | – | – | 80 | –
Fc1cc(Cl)cnc1Oc1ccccc1-c1cc(C(F)(F)F)no1 [Example 1-112] | very good herbicidal activity | 100 | 100 | – | Early post-emergence effect against Matricaria chamonilla (MATCH) [11]: 80%
Cc1cc(-c2ccccc2Oc2ncc(Cl)cc2F)ncn1 [Example 1-109] | very good herbicidal activity | 100 | 80 | 80 | –
Fc1cccc(Oc2ccccn2)c1-c1cc(C(F)F)on1 [Example 1-8] | very good herbicidal activity | – | 80 | 80 | –
Cc1cc(-c2ccccc2Oc2ccc(Cl)cn2)ncn1 [Example 1-108] | very good herbicidal activity | 80 | 80 | – | Early post-emergence effect against Matricaria chamonilla (MATCH) [11]: 80%
FC(F)(F)c1cc(-c2ccccc2Oc2ccc(Cl)cn2)on1 [Example 1-113] | very good herbicidal activity | 100 | 100 | – | Early post-emergence effect against Matricaria chamonilla (MATCH) [11]: 80%
Cc1ccc(Oc2ccccc2-c2cccc(C(F)(F)F)n2)nc1 [Example 1-51] | very good herbicidal activity | – | – | – | Early post-emergence effect against Matricaria chamonilla (MATCH) [11]: 80%
Cn1nc(C(F)F)cc1-c1cc(F)ccc1Oc1ccc(Cl)cn1 [Example 1-32] | very good herbicidal activity | – | 80 | 80 | –
Cn1nc(-c2c(F)cccc2Oc2ncccc2F)cc1C(F)F [Example 1-84] | very good herbicidal activity | – | – | – | Early post-emergence effect against Veronica persica (VERPE) [12]: 80%
